Experiments:
[1] = test system: Tyrosine-protein kinase ABL1 (Homo sapiens), P00519 [F317L]; details: Compound concentration 1000.0 nM
[2] = biological target: Tyrosine-protein kinase ABL1 (Homo sapiens) (UniProt P00519); details: Compound concentration 1000.0 nM
[3] = biological target: RAC-alpha serine/threonine-protein kinase (Homo sapiens) (UniProt P31749); details: Compound concentration 1000.0 nM
[4] = biological target: Aurora kinase B (Homo sapiens) (UniProt Q96GD4); details: Compound concentration 1000.0 nM
[5] = biological target: Bone morphogenetic protein receptor type-2 (Homo sapiens) (UniProt Q13873); details: Compound concentration 1000.0 nM
[6] = biological target: Serine/threonine-protein kinase Chk2 (Homo sapiens) (UniProt O96017); details: Compound concentration 1000.0 nM
[7] = biological target: Casein kinase I isoform epsilon (Homo sapiens) (UniProt P49674); details: Compound concentration 1000.0 nM
[8] = biological target: Casein kinase I isoform gamma-1 (Homo sapiens) (UniProt Q9HCP0); details: Compound concentration 1000.0 nM
Chain of Casein kinase I isoform gamma-1 (Homo sapiens) (Q9HCP0 whole entry, looked up, canonical isoform): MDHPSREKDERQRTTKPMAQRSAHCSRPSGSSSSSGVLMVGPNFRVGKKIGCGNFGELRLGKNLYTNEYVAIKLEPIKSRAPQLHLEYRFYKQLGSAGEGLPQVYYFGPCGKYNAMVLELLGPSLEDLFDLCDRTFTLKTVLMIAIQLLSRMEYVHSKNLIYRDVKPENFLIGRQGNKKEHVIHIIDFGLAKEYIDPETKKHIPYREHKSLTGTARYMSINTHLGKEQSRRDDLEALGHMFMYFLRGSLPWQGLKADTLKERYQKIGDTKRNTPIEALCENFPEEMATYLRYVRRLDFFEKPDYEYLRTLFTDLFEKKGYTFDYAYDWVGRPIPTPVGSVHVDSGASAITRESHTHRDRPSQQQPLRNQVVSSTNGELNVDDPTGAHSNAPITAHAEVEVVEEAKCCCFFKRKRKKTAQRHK

[9] = test system: Epidermal growth factor receptor (Homo sapiens), P00533 [UNDEFINED MUTATION]; details: Compound concentration 1000.0 nM
[10] = biological target: Fibroblast growth factor receptor 1 (Homo sapiens) (UniProt P11362); details: Compound concentration 1000.0 nM
[11] = biological target: Tyrosine-protein kinase Fgr (Homo sapiens) (UniProt P09769); details: Compound concentration 1000.0 nM
[12] = test system: Receptor-type tyrosine-protein kinase FLT3 (Homo sapiens), P36888 [D835H]; details: Compound concentration 1000.0 nM
[13] = test system: Receptor-type tyrosine-protein kinase FLT3 (Homo sapiens), P36888 [D835V]; details: Compound concentration 1000.0 nM
[14] = biological target: Receptor-type tyrosine-protein kinase FLT3 (Homo sapiens) (UniProt P36888); details: Compound concentration 1000.0 nM
[15] = biological target: G protein-coupled receptor kinase 3 (Homo sapiens) (UniProt P35626); details: Compound concentration 1000.0 nM
[16] = biological target: Rhodopsin kinase GRK7 (Homo sapiens) (UniProt Q8WTQ7); details: Compound concentration 1000.0 nM
Chain of Rhodopsin kinase GRK7 (Homo sapiens) (Q8WTQ7 whole entry): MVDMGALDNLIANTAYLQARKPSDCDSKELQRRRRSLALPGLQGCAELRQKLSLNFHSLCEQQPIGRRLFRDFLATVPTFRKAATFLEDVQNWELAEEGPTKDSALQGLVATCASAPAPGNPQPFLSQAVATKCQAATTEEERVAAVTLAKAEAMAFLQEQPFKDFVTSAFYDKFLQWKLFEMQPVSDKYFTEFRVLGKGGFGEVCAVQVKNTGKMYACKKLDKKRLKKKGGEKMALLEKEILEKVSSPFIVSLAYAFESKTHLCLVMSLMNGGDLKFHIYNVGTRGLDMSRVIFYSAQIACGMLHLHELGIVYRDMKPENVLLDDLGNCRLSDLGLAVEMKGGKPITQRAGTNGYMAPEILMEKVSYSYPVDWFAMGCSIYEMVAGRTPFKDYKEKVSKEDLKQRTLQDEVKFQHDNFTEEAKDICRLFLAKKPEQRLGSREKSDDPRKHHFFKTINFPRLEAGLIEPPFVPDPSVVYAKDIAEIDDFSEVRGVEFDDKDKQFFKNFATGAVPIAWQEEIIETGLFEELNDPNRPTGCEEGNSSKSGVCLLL

[17] = biological target: Tyrosine-protein kinase ITK/TSK (Homo sapiens) (UniProt Q08881); details: Compound concentration 1000.0 nM
[18] = biological target: Mast/stem cell growth factor receptor Kit (Homo sapiens) (UniProt P10721); details: Compound concentration 1000.0 nM
[19] = test system: Mast/stem cell growth factor receptor Kit (Homo sapiens), P10721 [L576P]; details: Compound concentration 1000.0 nM
[20] = biological target: LIM domain kinase 2 (Homo sapiens) (UniProt P53671); details: Compound concentration 1000.0 nM
[21] = biological target: Serine/threonine-protein kinase 10 (Homo sapiens) (UniProt O94804); details: Compound concentration 1000.0 nM
[22] = biological target: Mitogen-activated protein kinase kinase kinase 13 (Homo sapiens) (UniProt O43283); details: Compound concentration 1000.0 nM
[23] = biological target: Serine/threonine-protein kinase MAK (Homo sapiens) (UniProt P20794); details: Compound concentration 1000.0 nM
[24] = biological target: MAP kinase-activated protein kinase 5 (Homo sapiens) (UniProt Q8IW41); details: Compound concentration 1000.0 nM
[25] = biological target: Dual specificity mitogen-activated protein kinase kinase 1 (Homo sapiens) (UniProt Q02750); details: Compound concentration 1000.0 nM
[26] = biological target: Maternal embryonic leucine zipper kinase (Homo sapiens) (UniProt Q14680); details: Compound concentration 1000.0 nM
[27] = biological target: MAP kinase-interacting serine/threonine-protein kinase 2 (Homo sapiens) (UniProt Q9HBH9); details: Compound concentration 1000.0 nM
[28] = biological target: Serine/threonine-protein kinase MRCK beta (Homo sapiens) (UniProt Q9Y5S2); details: Compound concentration 1000.0 nM
[29] = biological target: Serine/threonine-protein kinase NLK (Homo sapiens) (UniProt Q9UBE8); details: Compound concentration 1000.0 nM
Chain of Serine/threonine-protein kinase NLK (Homo sapiens) (Q9UBE8 whole entry, canonical isoform): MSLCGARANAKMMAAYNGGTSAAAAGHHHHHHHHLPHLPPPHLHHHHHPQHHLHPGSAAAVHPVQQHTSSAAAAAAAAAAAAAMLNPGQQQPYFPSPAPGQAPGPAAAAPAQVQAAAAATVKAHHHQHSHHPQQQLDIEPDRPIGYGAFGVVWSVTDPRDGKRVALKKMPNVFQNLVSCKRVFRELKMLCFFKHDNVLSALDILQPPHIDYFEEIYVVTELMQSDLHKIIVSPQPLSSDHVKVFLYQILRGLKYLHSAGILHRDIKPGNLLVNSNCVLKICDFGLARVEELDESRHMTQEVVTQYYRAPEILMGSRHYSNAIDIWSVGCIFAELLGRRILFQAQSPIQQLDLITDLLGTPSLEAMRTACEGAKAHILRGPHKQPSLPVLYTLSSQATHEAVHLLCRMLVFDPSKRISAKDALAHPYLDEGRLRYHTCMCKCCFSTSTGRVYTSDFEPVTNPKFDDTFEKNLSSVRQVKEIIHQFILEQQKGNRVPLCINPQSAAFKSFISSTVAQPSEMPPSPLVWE

[30] = test system: Phosphatidylinositol 4,5-bisphosphate 3-kinase catalytic subunit alpha isoform (Homo sapiens), P42336 [H1047L]; details: Compound concentration 1000.0 nM
Chain of Phosphatidylinositol 4,5-bisphosphate 3-kinase catalytic subunit alpha isoform (Homo sapiens), P42336 [H1047L] (P42336 whole entry H1047L, canonical isoform): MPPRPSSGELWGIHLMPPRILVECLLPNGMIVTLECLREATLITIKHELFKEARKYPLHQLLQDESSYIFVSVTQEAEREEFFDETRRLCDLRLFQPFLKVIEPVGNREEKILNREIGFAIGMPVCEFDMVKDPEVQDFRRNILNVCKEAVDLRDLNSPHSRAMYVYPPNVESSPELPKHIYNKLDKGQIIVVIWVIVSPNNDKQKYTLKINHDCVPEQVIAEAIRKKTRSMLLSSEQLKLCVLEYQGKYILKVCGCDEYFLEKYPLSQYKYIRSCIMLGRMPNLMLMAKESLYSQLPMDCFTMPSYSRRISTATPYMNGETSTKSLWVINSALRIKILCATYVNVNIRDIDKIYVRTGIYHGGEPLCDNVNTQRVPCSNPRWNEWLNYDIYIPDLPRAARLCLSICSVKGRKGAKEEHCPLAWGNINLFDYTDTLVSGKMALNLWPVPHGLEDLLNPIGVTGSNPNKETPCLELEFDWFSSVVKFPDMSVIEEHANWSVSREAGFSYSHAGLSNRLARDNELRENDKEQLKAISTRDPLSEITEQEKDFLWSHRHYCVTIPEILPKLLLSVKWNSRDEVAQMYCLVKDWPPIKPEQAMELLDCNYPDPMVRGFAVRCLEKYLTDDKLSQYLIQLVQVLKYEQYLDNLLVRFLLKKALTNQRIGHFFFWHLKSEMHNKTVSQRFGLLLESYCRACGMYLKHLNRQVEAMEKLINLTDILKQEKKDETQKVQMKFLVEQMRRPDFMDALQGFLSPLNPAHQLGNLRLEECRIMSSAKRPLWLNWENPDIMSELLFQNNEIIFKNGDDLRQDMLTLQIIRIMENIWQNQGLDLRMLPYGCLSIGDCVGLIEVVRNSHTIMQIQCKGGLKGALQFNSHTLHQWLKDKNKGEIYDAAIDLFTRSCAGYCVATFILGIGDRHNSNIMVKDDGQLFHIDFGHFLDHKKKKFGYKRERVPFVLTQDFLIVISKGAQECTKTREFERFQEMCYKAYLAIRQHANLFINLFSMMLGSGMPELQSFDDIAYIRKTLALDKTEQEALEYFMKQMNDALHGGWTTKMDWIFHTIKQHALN

[31] = test system: Phosphatidylinositol 4,5-bisphosphate 3-kinase catalytic subunit alpha isoform (Homo sapiens), P42336 [Q546K]; details: Compound concentration 1000.0 nM
[32] = biological target: Phosphatidylinositol 4-kinase beta (Homo sapiens) (UniProt Q9UBF8); details: Compound concentration 1000.0 nM
Chain of Phosphatidylinositol 4-kinase beta (Homo sapiens) (Q9UBF8 2-816 limits assumed): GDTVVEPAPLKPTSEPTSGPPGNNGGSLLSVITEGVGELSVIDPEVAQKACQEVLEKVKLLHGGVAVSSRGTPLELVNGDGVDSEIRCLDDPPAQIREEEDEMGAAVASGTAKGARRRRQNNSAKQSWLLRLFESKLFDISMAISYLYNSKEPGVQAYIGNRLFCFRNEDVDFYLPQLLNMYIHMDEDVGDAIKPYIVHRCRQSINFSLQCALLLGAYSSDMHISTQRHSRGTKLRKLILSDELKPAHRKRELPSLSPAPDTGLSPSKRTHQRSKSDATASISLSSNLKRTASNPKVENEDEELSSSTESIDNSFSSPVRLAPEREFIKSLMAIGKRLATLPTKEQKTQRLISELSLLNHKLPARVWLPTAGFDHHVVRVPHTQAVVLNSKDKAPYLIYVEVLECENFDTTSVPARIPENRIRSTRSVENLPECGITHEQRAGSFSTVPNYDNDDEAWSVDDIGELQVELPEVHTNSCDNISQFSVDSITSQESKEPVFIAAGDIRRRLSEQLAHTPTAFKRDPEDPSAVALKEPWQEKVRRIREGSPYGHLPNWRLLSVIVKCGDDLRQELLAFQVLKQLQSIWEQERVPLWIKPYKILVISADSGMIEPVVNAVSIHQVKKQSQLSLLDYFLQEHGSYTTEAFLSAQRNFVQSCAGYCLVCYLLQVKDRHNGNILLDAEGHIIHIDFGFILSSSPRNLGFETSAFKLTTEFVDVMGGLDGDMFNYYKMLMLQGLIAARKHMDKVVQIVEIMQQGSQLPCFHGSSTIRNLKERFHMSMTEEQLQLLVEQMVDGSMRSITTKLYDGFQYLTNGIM

[33] = biological target: cAMP-dependent protein kinase catalytic subunit alpha (Homo sapiens) (UniProt P17612); details: Compound concentration 1000.0 nM
[34] = biological target: Membrane-associated tyrosine- and threonine-specific cdc2-inhibitory kinase (Homo sapiens) (UniProt Q99640); details: Compound concentration 1000.0 nM
[35] = test system: Proto-oncogene tyrosine-protein kinase receptor Ret (Homo sapiens), P07949 [M918T]; details: Compound concentration 1000.0 nM
[36] = biological target: Ribosomal protein S6 kinase alpha-6 (Homo sapiens) (UniProt Q9UK32); details: Compound concentration 1000.0 nM
[37] = biological target: Serine/threonine-protein kinase Sgk1 (Homo sapiens) (UniProt O00141); details: Compound concentration 1000.0 nM
Chain of Serine/threonine-protein kinase Sgk1 (Homo sapiens) (O00141 whole entry): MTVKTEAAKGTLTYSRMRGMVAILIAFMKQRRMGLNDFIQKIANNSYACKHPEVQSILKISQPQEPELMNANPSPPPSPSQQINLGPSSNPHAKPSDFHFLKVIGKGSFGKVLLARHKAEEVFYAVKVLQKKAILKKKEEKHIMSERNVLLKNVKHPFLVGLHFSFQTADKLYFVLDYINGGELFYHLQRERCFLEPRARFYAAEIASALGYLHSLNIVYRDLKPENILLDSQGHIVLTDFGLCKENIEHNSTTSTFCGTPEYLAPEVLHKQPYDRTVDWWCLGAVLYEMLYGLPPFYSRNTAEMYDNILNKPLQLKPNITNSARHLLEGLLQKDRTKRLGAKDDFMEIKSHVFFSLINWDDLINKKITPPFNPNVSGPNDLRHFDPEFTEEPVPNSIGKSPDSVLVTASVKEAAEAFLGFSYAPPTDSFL

[38] = biological target: STE20-like serine/threonine-protein kinase (Homo sapiens) (UniProt Q9H2G2); details: Compound concentration 1000.0 nM
[39] = biological target: Tyrosine-protein kinase Srms (Homo sapiens) (UniProt Q9H3Y6); details: Compound concentration 1000.0 nM
[40] = biological target: Serine/threonine-protein kinase 33 (Homo sapiens) (UniProt Q9BYT3); details: Compound concentration 1000.0 nM
[41] = biological target: Serine/threonine-protein kinase TAO3 (Homo sapiens) (UniProt Q9H2K8); details: Compound concentration 1000.0 nM
[42] = biological target: Transient receptor potential cation channel subfamily M member 6 (Homo sapiens) (UniProt Q9BX84); details: Compound concentration 1000.0 nM
[43] = biological target: Mitogen-activated protein kinase kinase kinase 19 (Homo sapiens) (UniProt Q56UN5); details: Compound concentration 1000.0 nM
[44] = biological target: Tyrosine-protein kinase ZAP-70 (Homo sapiens) (UniProt P43403); details: Compound concentration 1000.0 nM
[45] = biological target: Muscarinic acetylcholine receptor M3 (Homo sapiens) (UniProt P20309); details: Compound concentration 10.0 uM

Chain of Tyrosine-protein kinase ABL1 (Homo sapiens), P00519 [F317L] (P00519 whole entry F317L): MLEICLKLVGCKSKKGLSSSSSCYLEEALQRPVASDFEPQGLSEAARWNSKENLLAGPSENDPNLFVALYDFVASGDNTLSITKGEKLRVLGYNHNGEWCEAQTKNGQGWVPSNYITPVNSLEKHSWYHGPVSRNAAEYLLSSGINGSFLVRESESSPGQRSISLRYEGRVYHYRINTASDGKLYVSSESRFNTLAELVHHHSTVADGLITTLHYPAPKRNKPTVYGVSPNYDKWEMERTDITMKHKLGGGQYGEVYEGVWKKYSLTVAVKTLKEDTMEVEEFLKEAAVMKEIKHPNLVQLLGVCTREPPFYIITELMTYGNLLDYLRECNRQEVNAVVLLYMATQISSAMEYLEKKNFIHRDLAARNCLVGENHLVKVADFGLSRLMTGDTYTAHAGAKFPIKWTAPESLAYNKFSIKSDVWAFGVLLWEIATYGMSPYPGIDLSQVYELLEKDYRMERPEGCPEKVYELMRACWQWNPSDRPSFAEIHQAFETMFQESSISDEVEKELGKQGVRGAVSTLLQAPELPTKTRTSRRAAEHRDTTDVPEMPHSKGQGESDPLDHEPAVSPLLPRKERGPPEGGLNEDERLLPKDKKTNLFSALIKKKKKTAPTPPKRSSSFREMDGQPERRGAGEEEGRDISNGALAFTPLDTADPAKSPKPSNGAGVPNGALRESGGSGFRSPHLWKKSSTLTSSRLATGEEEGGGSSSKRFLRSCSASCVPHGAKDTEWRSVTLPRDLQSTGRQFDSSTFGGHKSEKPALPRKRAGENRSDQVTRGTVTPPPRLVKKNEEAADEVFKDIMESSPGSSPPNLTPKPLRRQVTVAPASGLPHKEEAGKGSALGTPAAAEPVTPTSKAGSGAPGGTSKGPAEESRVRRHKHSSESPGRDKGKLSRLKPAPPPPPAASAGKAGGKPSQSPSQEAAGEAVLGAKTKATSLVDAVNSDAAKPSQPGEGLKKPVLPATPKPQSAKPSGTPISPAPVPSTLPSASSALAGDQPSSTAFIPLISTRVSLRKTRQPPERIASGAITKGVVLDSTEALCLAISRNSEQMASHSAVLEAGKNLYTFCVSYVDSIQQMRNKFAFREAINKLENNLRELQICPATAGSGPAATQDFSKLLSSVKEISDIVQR

For `O=C(NCc1ncc(C(F)(F)F)cc1Cl)c1ccc2c(c1)C1(CCS(=O)(=O)CC1)[C@@H](C1CC1)N2S(=O)(=O)c1ccc(F)cc1` [BAY-786], the residual activity [1] was 68%, the residual activity [2] was 89% and the residual activity [3] was 94%. For the same compound, the residual activity [4] was 66%, the residual activity [5] was 73% and the residual activity [6] was 97%. It also gave a residual activity [7] of 100%, a residual activity [8] of 90% and a residual activity [9] of 79%. It also gave a residual activity [10] of 100%, a residual activity [11] of 93% and a residual activity [12] of 100%. For the same compound, the residual activity [13] was 76%, the residual activity [14] was 94% and the residual activity [15] was 100%. For the same compound, the residual activity [16] was 65%, the residual activity [17] was 100% and the residual activity [18] was 82%. For the same compound, the residual activity [19] was 76%, the residual activity [20] was 94% and the residual activity [21] was 94%. For the same compound, the residual activity [22] was 0%, the residual activity [23] was 89% and the residual activity [24] was 100%. For the same compound, the residual activity [25] was 91%, the residual activity [26] was 100% and the residual activity [27] was 76%. It also gave a residual activity [28] of 100%, a residual activity [29] of 89% and a residual activity [30] of 85%. The residual activity [31] was 72%, the residual activity [32] was 100% and the residual activity [33] was 98%. It also gave a residual activity [34] of 92%, a residual activity [35] of 100% and a residual activity [36] of 100%. It also gave a residual activity [37] of 77%, a residual activity [38] of 100% and a residual activity [39] of 60%. It also gave a residual activity [40] of 86%, a residual activity [41] of 80% and a residual activity [42] of 92%. For the same compound, the residual activity [43] was 69%, the residual activity [44] was 72% and the inhibition [45] was 14.4%.

`O=C(NCc1ncc(C(F)(F)F)cc1Cl)c1ccc2c(c1)C1(CCS(=O)(=O)CC1)[C@H](C1CC1)N2S(=O)(=O)c1ccc(F)cc1` [BAY-784] showed a residual activity [1] of 74%, a residual activity [2] of 92% and a residual activity [3] of 96%. The residual activity [4] was 66%, the residual activity [5] was 80% and the residual activity [6] was 100%. For the same compound, the residual activity [7] was 100%, the residual activity [8] was 86% and the residual activity [9] was 100%. For the same compound, the residual activity [10] was 49%, the residual activity [11] was 100% and the residual activity [12] was 92%. It also gave a residual activity [13] of 70%, a residual activity [14] of 95% and a residual activity [15] of 99%. For the same compound, the residual activity [16] was 80%, the residual activity [17] was 100% and the residual activity [18] was 100%. The residual activity [19] was 100%, the residual activity [20] was 100% and the residual activity [21] was 54%. For the same compound, the residual activity [22] was 0%, the residual activity [23] was 100% and the residual activity [24] was 100%. It also gave a residual activity [25] of 98%, a residual activity [26] of 54% and a residual activity [27] of 83%. For the same compound, the residual activity [28] was 100%, the residual activity [29] was 100% and the residual activity [30] was 77%. For the same compound, the residual activity [31] was 76%, the residual activity [32] was 78% and the residual activity [33] was 86%. The residual activity [34] was 100%, the residual activity [35] was 96% and the residual activity [36] was 87%. The residual activity [37] was 79%, the residual activity [38] was 100% and the residual activity [39] was 71%. For the same compound, the residual activity [40] was 100%, the residual activity [41] was 99% and the residual activity [42] was 81%. The residual activity [43] was 73%, the residual activity [44] was 84% and the inhibition [45] was 18.1%.
